Consider 45 substances from patent US11214803B2, “Modulators of YAP1 expression” (Ionis Pharmaceuticals, Inc., priority 2019, dated 2022).

Strand notation (5' to 3'): a small letter for the sugar, then the base; units joined by * are phosphorothioate-linked, units joined directly phosphodiester-linked; [ ] holds rarer units or linkages, { } end groups; capitals alone tell only the bases. k = constrained ethyl (cEt); [5mC] = 5-methylcytosine; d = 2'-deoxy (DNA)

For one series, the system named is Yap1 mRNA. The experiment in a line: Antisense inhibition of human Yap1 in A-431 cells by cEt gapmers, single dose (Example 2, RTS4814). The class given is cell-based. The conditions noted are these: Table 18; A-431 cells, 5,000 cells per well, free uptake, 2,000 nM modified oligonucleotide, approx. 48 hours; RTS4814; normalized to RIBOGREEN; Yap1 mRNA as percent of untreated control. The essentials:
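Single-dose knockdown screen of 3-10-3 cEt phosphorothioate gapmers at 2,000 nM added by free uptake to A-431 cells. After roughly 48 h, RNA was isolated and Yap1 transcript measured by RT-qPCR, with results given as % UTC.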
As to “1075556 (kT*kG*kG*d[5mC]*dA*dA*dA*dA*dG*dA*dG*dT*dG*kG*kT*kG; antisense) [Compound 1075556]”, the “YAP1 (% UTC)” value is reported as 68 % UTC.
With “1075588 (kA*k[5mC]*kT*dT*dA*dT*dT*dA*dG*d[5mC]*dA*d[5mC]*d[5mC]*kT*kG*kG; antisense) [Compound 1075588]”, the “YAP1 (% UTC)” value worked out at 27 % UTC.
On to “1075620 (kG*kA*kT*dG*dA*dA*dG*dA*dA*dT*d[5mC]*dT*dA*kT*kA*kG; antisense) [Compound 1075620]”, for which the “YAP1 (% UTC)” value was determined as 88 % UTC.
For “1075652 (kG*kT*kA*dT*dA*dT*dT*dA*d[5mC]*dA*dA*dT*d[5mC]*k[5mC]*k[5mC]*kA; antisense) [Compound 1075652]”, the “YAP1 (% UTC)” value is reported as 40 % UTC.

Staying with this series, now noted: Table 19; A-431 cells, 5,000 cells per well, free uptake, 2,000 nM modified oligonucleotide, approx. 48 hours; RTS4814; normalized to RIBOGREEN; Yap1 mRNA as percent of untreated control.
For “1075557 (kT*kA*kT*dT*dA*dA*dG*dG*dT*dG*dG*d[5mC]*dT*kT*kA*k[5mC]; antisense) [Compound 1075557]”, the “YAP1 (% UTC)” value came out at 57 % UTC.
With “1075589 (kA*kA*kT*dT*dA*dG*d[5mC]*dA*dG*dG*dG*d[5mC]*dA*kG*kA*k[5mC]; antisense) [Compound 1075589]”, the “YAP1 (% UTC)” value was determined as 84 % UTC.
In the case of “1075621 (kG*kA*kT*dT*dA*dA*d[5mC]*dA*dT*dT*dG*dA*dT*kA*k[5mC]*kT; antisense) [Compound 1075621]”, the “YAP1 (% UTC)” value is on record as 61 % UTC.
Turning to “1075653 (k[5mC]*kA*kT*dA*dA*dA*d[5mC]*dT*d[5mC]*dT*dG*d[5mC]*dT*kG*kT*k[5mC]; antisense) [Compound 1075653]”, the “YAP1 (% UTC)” value is 58 % UTC.

The series is the same for the next values; noted with them: Table 20; Yap1 mRNA, percent of untreated control; 3-10-3 cEt gapmers targeting SEQ ID NO.: 1 and 2.
For the substance “1075558 (kA*kT*kA*dT*dT*dA*dA*dG*dG*dT*dG*dG*d[5mC]*kT*kT*kA; antisense) [Compound 1075558]”, the “YAP1 (% UTC)” value is recorded as 51 % UTC.
For the substance “1075590 (k[5mC]*kA*kT*d[5mC]*dA*dA*dA*dA*dT*dT*dA*dG*d[5mC]*kA*kG*kG; antisense) [Compound 1075590]”, the “YAP1 (% UTC)” value worked out at 50 % UTC.
Consider “1075622 (kT*k[5mC]*kT*dT*dA*dT*dA*d[5mC]*d[5mC]*dT*dA*dT*d[5mC]*kT*kT*k[5mC]; antisense) [Compound 1075622]”, for which the “YAP1 (% UTC)” value amounted to 56 % UTC.
Turning to “1075654 (kT*kA*kT*dT*dA*dA*dG*dA*d[5mC]*dG*dA*dA*dT*k[5mC]*k[5mC]*kA; antisense) [Compound 1075654]”, the “YAP1 (% UTC)” value turned out to be 76 % UTC.

Staying with this series, now noted: Table 21; Yap1 mRNA, percent of untreated control; 3-10-3 cEt gapmers targeting SEQ ID NO.: 1 and 2.
For “1075559 (kG*kA*kT*dA*dT*dT*dA*dA*dG*dG*dT*dG*dG*k[5mC]*kT*kT; antisense) [Compound 1075559]”, the “YAP1 (% UTC)” value was 24 % UTC.
Turning to “1075591 (kG*kT*kA*dA*dT*dA*dA*dT*d[5mC]*dA*d[5mC]*d[5mC]*dT*kT*kA*k[5mC]; antisense) [Compound 1075591]”, the “YAP1 (% UTC)” value amounted to 76 % UTC.
Still for that read-out and setting: the value for “1075623 (k[5mC]*kA*kT*dA*dA*dT*d[5mC]*dA*dA*dA*dA*dT*dG*kG*kG*k[5mC]; antisense) [Compound 1075623]” was 48 % UTC; that for “1075655 (k[5mC]*kT*kA*dT*dT*dA*dA*dG*dA*d[5mC]*dG*dA*dA*kT*k[5mC]*k[5mC]; antisense) [Compound 1075655]” was 38 % UTC.

The same series, now with this note: Table 22; Yap1 mRNA as percent of untreated control; 3-10-3 cEt gapmers; single dose.
For the substance “1075560 (kG*k[5mC]*kT*dA*dA*dA*dT*dA*dA*dA*dG*dG*dT*kT*kA*k[5mC]; antisense) [Compound 1075560]”, the “YAP1 (% UTC)” value is given as 86 % UTC.
As to “1075592 (k[5mC]*kG*kT*dA*dA*dT*dA*dA*dT*d[5mC]*dA*d[5mC]*d[5mC]*kT*kT*kA; antisense) [Compound 1075592]”, the “YAP1 (% UTC)” value turned out to be 55 % UTC.
Same read-out and setting: the same measure for “1075624 (kA*kT*k[5mC]*dT*dA*dT*dA*dA*d[5mC]*d[5mC]*d[5mC]*dT*dT*kA*kT*kT; antisense) [Compound 1075624]”: 91 % UTC; for “1075656 (kA*kA*kA*dA*d[5mC]*dG*dG*dT*dT*dT*dT*dT*d[5mC]*kT*kA*kA; antisense) [Compound 1075656]”: 103 % UTC.

The same series, now with this note: Table 23; Yap1 mRNA as percent of untreated control; 3-10-3 cEt gapmers; single dose.
With “1075561 (kG*kT*kA*dA*dG*dT*dA*dA*dG*dG*dG*dA*dA*k[5mC]*k[5mC]*k[5mC]; antisense) [Compound 1075561]”, the “YAP1 (% UTC)” value came to 32 % UTC.
“1075593 (k[5mC]*kA*kT*dT*dA*dG*dA*dG*dT*dA*dT*dG*dA*kA*k[5mC]*kT; antisense) [Compound 1075593]”: the “YAP1 (% UTC)” value is given as 99 % UTC.
Same read-out and setting: the same measure for “1075625 (kA*kA*kT*d[5mC]*dT*dA*dT*dA*dA*d[5mC]*d[5mC]*d[5mC]*dT*kT*kA*kT; antisense) [Compound 1075625]”: 49 % UTC; for “1075657 (kT*kA*kA*dA*dA*dA*dA*d[5mC]*dG*dG*dT*dT*dT*kT*kT*k[5mC]; antisense) [Compound 1075657]”: 84 % UTC.

The same series, now with this note: Table 24; Yap1 mRNA as percent of untreated control; 3-10-3 cEt gapmers targeting SEQ ID NO.: 1, and 2.
“1075562 (kG*kT*kA*dT*dT*dT*dA*dT*dG*dG*d[5mC]*dA*dA*k[5mC]*kA*kT; antisense) [Compound 1075562]”: the “YAP1 (% UTC)” value was determined as 15 % UTC.
The same measure, in the same setting: the same measure for “1075594 (kT*kG*kA*dG*dA*dA*dT*dA*dT*dT*d[5mC]*d[5mC]*dT*k[5mC]*k[5mC]*k[5mC]; antisense) [Compound 1075594]”: 64 % UTC; for “1075626 (k[5mC]*kA*kT*dT*dA*dG*d[5mC]*d[5mC]*dA*dA*dA*dG*d[5mC]*kT*k[5mC]*kA; antisense) [Compound 1075626]”: 34 % UTC; for “1075658 (kG*kT*kA*dA*dA*dA*dA*dA*d[5mC]*dG*dG*dT*dT*kT*kT*kT; antisense) [Compound 1075658]”: 103 % UTC.

Staying with this series, now noted: Table 25; Yap1 mRNA as percent of untreated control; 3-10-3 cEt gapmers targeting SEQ ID NO.: 1, and 2.
Take “1075563 (k[5mC]*k[5mC]*kA*dT*dA*dT*dA*dA*d[5mC]*d[5mC]*dA*dG*dT*kT*kT*kT; antisense) [Compound 1075563]”: the “YAP1 (% UTC)” value came out at 12 % UTC.
For “1075595 (kT*kA*kT*dA*dA*dT*dA*d[5mC]*dA*dT*d[5mC]*dT*d[5mC]*k[5mC]*k[5mC]*k[5mC]; antisense) [Compound 1075595]”, the “YAP1 (% UTC)” value stood at 50 % UTC.
“1075627 (kA*kT*kA*dA*dG*dA*dT*dA*dG*dT*d[5mC]*dG*dG*kT*kT*k[5mC]; antisense) [Compound 1075627]”: the “YAP1 (% UTC)” value is given as 19 % UTC.
Still for that read-out and setting: the same measure for “1075659 (kA*kA*kG*dT*dA*dA*dA*dA*dA*dA*d[5mC]*dG*dG*kT*kT*kT; antisense) [Compound 1075659]”: 125 % UTC.

The same series, now with this note: Table 32; Yap1 mRNA, percent of untreated control; 3-10-3 cEt gapmers targeting SEQ ID NO.: 1, and 2.
In the case of “1075570 (kG*kA*kT*dA*d[5mC]*dT*dA*dA*dG*d[5mC]*dA*d[5mC]*dA*kG*kA*kG; antisense) [compound 1075570]”, the “YAP1 (% UTC)” value turned out to be 16 % UTC.
On to “1075602 (antisense kT*kA*kT*dT*dA*dT*dA*dA*dG*dT*d[5mC]*dT*dA*k[5mC]*kA*kA) [compound 1075602]”, for which the “YAP1 (% UTC)” value was 114 % UTC.
“1075634 (antisense kA*kG*kA*d[5mC]*dT*dA*dT*dA*dT*dT*dG*dG*d[5mC]*kT*k[5mC]*k[5mC]) [compound 1075634]”: the “YAP1 (% UTC)” value amounted to 65 % UTC.

The series is the same for the next values; noted with them: Table 33; Yap1 mRNA, percent of untreated control; 3-10-3 cEt gapmers targeting SEQ ID NO.: 1, and 2.
With “1075539 (k[5mC]*kT*kT*dA*dA*dG*dG*dG*dA*dT*dG*dG*dA*kA*k[5mC]*kA; antisense) [compound 1075539]”, the “YAP1 (% UTC)” value stood at 79 % UTC.
On the same count and under the same terms, the same measure for “1075571 (antisense k[5mC]*kA*kA*dA*dT*dA*dG*dA*dT*dA*d[5mC]*dT*dA*kA*kG*k[5mC]) [compound 1075571]”: 54 % UTC; for “1075603 (antisense kT*kA*kT*dG*dA*dA*d[5mC]*dA*dA*dG*dT*dA*dT*kG*kA*kG) [compound 1075603]”: 35 % UTC; for “1075635 (antisense kA*kA*kT*dA*dA*dA*d[5mC]*dA*d[5mC]*d[5mC]*dT*d[5mC]*dG*k[5mC]*k[5mC]*kA) [compound 1075635]”: 97 % UTC.

The series is the same for the next values; noted with them: Yap1 mRNA as percent of untreated control; A-431 cells; 3-10-3 cEt gapmers targeting SEQ ID NO.: 1, and 2; Table 30.
As to “1075568 (kT*kT*kA*dT*dT*dT*dA*dA*dG*dT*dT*dG*dG*kG*kA*kG; antisense) [compound 1075568]”, the “YAP1 (% UTC)” value came to 23 % UTC.
For “1075600 (antisense k[5mC]*kA*k[5mC]*dT*dA*dT*dA*dA*dT*d[5mC]*dT*dG*dA*k[5mC]*k[5mC]*k[5mC]) [compound 1075600]”, the “YAP1 (% UTC)” value is reported as 68 % UTC.
Same read-out and setting: the value for “1075632 (antisense kT*k[5mC]*k[5mC]*d[5mC]*dT*dA*dT*dA*dA*d[5mC]*d[5mC]*dA*dA*kA*kT*kG) [compound 1075632]” was 95 % UTC.

Staying with this series, now noted: Yap1 mRNA as percent of untreated control; A-431 cells; 3-10-3 cEt gapmers targeting SEQ ID NO.: 1, and 2; Table 31.
As to “1075569 (kG*kT*kA*dG*dA*dA*dA*dG*dG*d[5mC]*dA*dT*dT*kA*kG*kA; antisense) [compound 1075569]”, the “YAP1 (% UTC)” value is 45 % UTC.
Consider “1075601 (antisense kA*k[5mC]*kA*d[5mC]*dT*dA*dT*dA*dA*dT*d[5mC]*dT*dG*kA*k[5mC]*k[5mC]) [compound 1075601]”, for which the “YAP1 (% UTC)” value is given as 50 % UTC.
For the substance “1075633 (antisense k[5mC]*kT*kA*dT*dA*dT*dT*dG*dG*d[5mC]*dT*d[5mC]*d[5mC]*kT*kA*kG) [compound 1075633]”, the “YAP1 (% UTC)” value was found to be 82 % UTC.
